This assay concerns the target P2Y purinoceptor 12 (Homo sapiens, UniProt Q9H244). Put plainly: Binding affinity to P2Y12 receptor expressed in human platelets from 0.047 to 50 nM.

Sequence of P2Y purinoceptor 12 (Q9H244 whole entry): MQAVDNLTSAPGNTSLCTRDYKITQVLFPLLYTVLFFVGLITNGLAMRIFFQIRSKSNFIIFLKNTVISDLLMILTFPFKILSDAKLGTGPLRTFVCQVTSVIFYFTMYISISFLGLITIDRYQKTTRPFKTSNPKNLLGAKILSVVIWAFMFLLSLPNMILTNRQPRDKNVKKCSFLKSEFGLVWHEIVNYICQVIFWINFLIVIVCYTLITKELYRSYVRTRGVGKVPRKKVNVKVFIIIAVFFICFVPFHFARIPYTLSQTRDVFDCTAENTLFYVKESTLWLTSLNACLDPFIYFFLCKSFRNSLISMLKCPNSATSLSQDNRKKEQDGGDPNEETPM

In the case of `[3H]C([3H])([3H])C([3H])([3H])CSc1nc(N)c2ncn([C@@H]3O[C@H](COP(=O)(O)OP(=O)(O)C(Cl)(Cl)P(=O)(O)O)[C@@H](O)[C@H]3O)c2n1`, the equilibrium dissociation constant (Kd) is 4.57 nM.

As usually defined, the Kd is the concentration at which binding is half-saturated. Read a low Kd as tighter binding.

The record behind these values is ChEMBL document CHEMBL1141235, “Synthesis and preliminary evaluation of [3H]PSB-0413, a selective antagonist radioligand for platelet P2Y12 receptors” (Bioorg Med Chem Lett, 2005).
